{
  "source": "paper PMC11279797",
  "about": "“Shifting Mycobacterial Serine Hydrolase Activity Visualized Using Multi-Layer In-Gel Activity Assays” (Molecules, 2024)",
  "target": "T1, LipN (Mycolicibacterium smegmatis, UniProt I7G6G5)",
  "T1 sequence (I7G6G5 1-378)": "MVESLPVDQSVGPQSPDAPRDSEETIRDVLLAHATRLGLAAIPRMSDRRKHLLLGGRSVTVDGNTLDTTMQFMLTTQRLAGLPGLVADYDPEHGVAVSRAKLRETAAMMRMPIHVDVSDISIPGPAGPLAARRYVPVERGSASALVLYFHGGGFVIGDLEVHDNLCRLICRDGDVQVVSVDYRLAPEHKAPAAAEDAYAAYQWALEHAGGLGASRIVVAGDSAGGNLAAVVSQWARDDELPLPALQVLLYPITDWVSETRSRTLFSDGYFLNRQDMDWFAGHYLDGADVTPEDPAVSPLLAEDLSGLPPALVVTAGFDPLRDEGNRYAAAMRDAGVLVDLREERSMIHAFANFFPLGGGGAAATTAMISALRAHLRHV",
  "experiment": "fluorogenic ester hydrolysis, initial rates, Michaelis-Menten fit",
  "type": "biochemical",
  "settings": "PBS pH 7.4, 0.1 mg/mL acetylated BSA, 25 C",
  "data": [
    {"compound": "O=C(OCOc1ccc2c(c1)Oc1cc(OCOC(=O)c3cnco3)ccc1C21OC(=O)c2ccccc21)c1cnco1", "note": "[compound 7, substrate 7]", "values": [
      {"measurement": "KM", "value": "Msmeg LipN has high enzymatic activity against the oxazole ester substrate"}
    ]}
  ]
}
